# From US20180265463A1, “Vitamin D3 Derivatives and Pharmaceutical Use Thereof” (Kyoto University, priority 2014, published 2018)
# Several values for one entry are separate records, joined by “and”; a condition that tells them apart may be missing. Equal values may be shown once. Entries after “also recorded” stand apart in the source; their conditions may differ.
# What was measured:
# Type in all cases: cell-based, Chinese hamster
# SREBP = test: SRE-driven luciferase reporter assay of SREBP activation; conditions: luciferase reporter in CHO-K1 cells, lipid-depleted medium, 20-24 h, normalized to β-galactosidase; averages of three independent experiments; read-out: IC50 (μM), inhibitory effect on the activation of SREBP
# Method: The transfected cells were treated with DMSO alone, sterols (10 μg/mL cholesterol and 1.0 μg/mL 25-HC), or varied concentrations of 25(OH)D in a medium containing lipid-free serum. Luciferase activity was measured after 20 h incubation, and the data were normalized to β-galactosidase activity. Values are the mean±SD of three independent experiments.
# The molecules in a chemical library which consists of 280 endogenous lipid related molecules were screened for their ability to inhibit the expression of a luciferase reporter gene. In this gene, three repeats of sterol regulatory elements (SREs) control expression of luciferase. Lipid depletion activates SREBPs, which bind to the SRE domain and work as transcription factors to express luciferase. The SREBP-responsive reporter construct was co-transfected into Chinese hamster ovary K1 (CHO-K1) cells, along with a control β-galactosidase (β-gal) reporter gene. A constitutively active actin promoter in the reporter gene drives the expression of β-gal. The levels of luciferase expression from the SREBP-responsive reporter gene were normalized to the levels of β-gal expression.
# CHO-K1 cells were maintained in a medium A (1:1 mixture of Ham's F-12 medium and Dulbecco's modified Eagle medium, supplemented with 100 units/mL penicillin, 100 μg/mL streptomycin sulfate, and 5% (v/v) fetal bovine serum) at 37° C. under humidified 5% CO2.
# On day 0, CHO-K1 cells were added to 96-well plates at 1.0×10^4 cells per well in medium A. On day 1, the cells were co-transfected with an SRE-1-driven luciferase reporter construct (pSRE-Luc) and pAc-β-gal at a 20/1 ratio, using FuGENE(Registered trademark) HD transfection reagent (Promega), according to the manufacturer's protocol. After 8-12 h of incubation, the cells were washed with PBS buffer, then incubated in medium B containing the specific test compounds. […] After 20-24 h of incubation, the cells in each well were lysed by freeze-thaw with Reporter Lysis Buffer (Promega), and aliquots were used to measure luciferase and β-galactosidase activities. Luciferase activity was measured using the Steady-Glo(Registered trademark) Luciferase Assay System (Promega), and β-galactosidase activity was measured using the β-galactosidase Enzyme Assay System (Promega). Luciferase activity was normalized to β-galactosidase activity.
# [1] = system: SREBP-2 fragment fused to PLAP (PLAP-BP2513-1141); test: PLAP-BP assay (secreted alkaline phosphatase reporter of SREBP translocation and processing); conditions: VD derivatives 10 μM, 20 h, CHO-K1 co-transfected with PLAP-BP2 and SCAP; average of two experiments
# SREBP-2 = test: Western-blot analysis of SREBP-2 in CHO-K1 cells; conditions: 5 μM, 18 h, CHO-K1 cells (FIG. 3)
# Method: CHO-K1 cells were treated with DMSO alone or each molecule (5 μM) for 18 h. The levels of precursor and mature forms of SREBP-2 were analyzed by Western-blot. Western-blots of actin are shown in lower panel as a loading control.
# CHO-K1 cells were treated with DMSO alone or each molecule (5 μM) for 16 h. The levels of precursor and mature forms of SREBP-2 were analyzed by Western-blot. Western-blots of actin are shown in lower panel as a loading control.
# (§1) On day 0, CHO-K1 cells were added to 6-well plates at 3.0×10^5 cells per well in medium A. On day 1, the cells were washed with PBS, and then incubated in medium B in the absence or presence of specific test compounds (5 μM). After 16 h of incubation, the cells were washed three times with cold PBS, and lysed with a buffer A (50 mM Tris-HCl (pH 7.5), 150 mM NaCl, 1% (v/v) Nonidet P40, 0.5% (w/v) sodium deoxycholate, 8 M urea, and protease inhibitor cocktail (Nacalai)). The cell lysate were passed 16 times through a 25 G needle and centrifuged at 7,000 g at 4° C. for 10 min. The supernatants were transferred to new tubes, and the pellets were extracted with a buffer A. The resulting buffer was centrifuged at 7,000 g at 4° C. for 10 min, and the supernatants were combined to the previous ones. The resulting lysate was mixed with 0.20 volume of 6×SDS sample buffer (Nacalai) and incubated at room temperature for 30 min. The samples were separated on a 10% SDS-PAGE gel and blotted, using mouse monoclonal antibodies against SREBP-2 (IgG-7D4), SCAP (IgG-9D5), c-Myc (IgG1-MC045), and actin (AC-40). The specific bands were visualized using enhanced chemiluminescence (ECL Prime Western Blotting Detection Reagent, GE Healthcare) on an ImageQuant LAS 500 (GE Healthcare).
# SCAP [2] = target: T1, SCAP (Cricetulus griseus, UniProt P97260); test: Western-blot analysis of SCAP levels and ubiquitination in CHO-K1 cells; conditions: 5 μM, CHO-K1 cells, different times (FIG. 4)
# T1 construct: endogenous in cells; host or cells: CHO-K1
# T1 sequence (P97260 1-1276): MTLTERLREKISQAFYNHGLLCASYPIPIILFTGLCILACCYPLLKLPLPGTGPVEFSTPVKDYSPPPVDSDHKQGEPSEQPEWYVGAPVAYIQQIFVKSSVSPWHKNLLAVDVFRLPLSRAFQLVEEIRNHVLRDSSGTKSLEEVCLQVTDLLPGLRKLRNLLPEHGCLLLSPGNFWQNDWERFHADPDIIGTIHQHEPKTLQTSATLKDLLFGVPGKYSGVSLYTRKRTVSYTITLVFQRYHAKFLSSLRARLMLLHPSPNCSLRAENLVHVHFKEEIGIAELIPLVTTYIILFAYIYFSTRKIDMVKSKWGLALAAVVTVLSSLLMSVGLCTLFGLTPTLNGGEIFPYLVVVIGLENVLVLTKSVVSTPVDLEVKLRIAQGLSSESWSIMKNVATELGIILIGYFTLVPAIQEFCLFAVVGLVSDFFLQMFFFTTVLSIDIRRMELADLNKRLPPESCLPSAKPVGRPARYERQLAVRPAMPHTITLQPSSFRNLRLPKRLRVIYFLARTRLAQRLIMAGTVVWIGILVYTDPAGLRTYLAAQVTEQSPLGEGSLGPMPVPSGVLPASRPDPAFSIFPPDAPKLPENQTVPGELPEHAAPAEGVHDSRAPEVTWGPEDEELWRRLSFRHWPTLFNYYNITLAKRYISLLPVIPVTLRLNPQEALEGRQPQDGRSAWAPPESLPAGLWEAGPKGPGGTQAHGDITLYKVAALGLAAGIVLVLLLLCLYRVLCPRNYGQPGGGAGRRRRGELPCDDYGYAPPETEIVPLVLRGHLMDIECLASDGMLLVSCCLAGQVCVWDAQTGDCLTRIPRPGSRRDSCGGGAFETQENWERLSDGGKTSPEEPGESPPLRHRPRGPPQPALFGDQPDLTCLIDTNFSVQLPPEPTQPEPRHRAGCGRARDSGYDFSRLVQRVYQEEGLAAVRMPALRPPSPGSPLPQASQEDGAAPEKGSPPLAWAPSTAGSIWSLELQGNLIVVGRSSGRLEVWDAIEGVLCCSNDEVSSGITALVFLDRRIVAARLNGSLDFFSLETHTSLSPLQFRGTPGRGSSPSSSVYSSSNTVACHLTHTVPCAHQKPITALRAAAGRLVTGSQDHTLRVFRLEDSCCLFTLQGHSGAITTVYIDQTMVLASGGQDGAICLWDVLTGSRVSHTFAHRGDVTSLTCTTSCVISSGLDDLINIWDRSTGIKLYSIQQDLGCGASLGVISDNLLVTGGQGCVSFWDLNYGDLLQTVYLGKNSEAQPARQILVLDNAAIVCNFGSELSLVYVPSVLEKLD
# Method: (§2) After incubation for the indicated time, the levels of SCAP and precursor and mature forms of SREBP-2 were analyzed by Western-blot. Western-blots of actin are shown in lower panel as a loading control.
# (§3) CHO-K1 cells were treated with DMSO alone or 25(OH)D (5 μM) in the presence or absence of MG-132 (10 μM) for 5 h. The levels of Myc-SCAP were analyzed by Western-blot. Western-blots of actin are shown in lower panel as a loading control.
# (§4) CHO-K1 cells were treated with DMSO alone (−) or 25(OH)D (5 μM, +). After 2 h incubation, each dish received MG-132 (10 μM). Following incubation for 2 h, cells were harvested and subjected to immunoprecipitation with monoclonal anti-c-Myc-conjugated agarose beads. The ubiquitination of SCAP was analyzed by Western-blot.
# as §1
# SCAP [3] = test: as above
# Method: as §2, §3, §4, §1
smiles,measurement,setting,value
"C=C1CC[C@H](O)C/C1=C/C=C1\CCC[C@]2(C)[C@@H]([C@H](C)CCCC(C)(C)O)CC[C@@H]12 [25(OH)D, 25-hydroxyvitamin D3]",IC50,SREBP,1 µM and 1.09 µM
same,secretion of PLAP,[1],inhibited the secretion of PLAP to a greater extent than sterol; also recorded: caused a greater decrease in PLAP secretion than did cholesterol
same,level of mature form of SREBP,SREBP-2,decreased
same,level of precursor form of SREBP,SREBP-2,decreased
same,levels of SCAP,SCAP [2],reduced
same,ubiquitination of SCAP,"SCAP [3]; 5 μM, 2 h then MG-132 10 μM for 2 h, immunoprecipitation (FIG. 6)",accelerated
same,decrease in the levels of SCAP (Myc-SCAP) on addition of MG-132,"SCAP [3]; 25(OH)D 5 μM with MG-132 10 μM, 5 h (FIG. 5)",cancelled
